From patent US20080051451A1, “Autoimmune conditions and NADPH oxidase defects” (priority 2006, published 2008)

Legend:
[1] = Arthritogenicity / arthritis effect (general statement); assay type: in vivo; conditions: general statement in Example 3
[2] = system: NADPH oxidase; test: Oxidative burst response to PMA in spleen granulocytes after s.c. injection in vivo; set-up: species or system Rat (Rattus norvegicus); conditions: spleen granulocytes 5 days after s.c. injection (200 μl) in DA.Ncf1^DA rats, PMA stimulation, compared to naive DA.Ncf1^DA and DA.Ncf1^E3
Method: The term DA.Ncf1^DA rats designates DA rats carrying the Ncf1 DA allele with impaired NADPH oxidase capacity and the term DA.Ncf1^E3 rats designates DA rats carrying the Ncf1^E3 allele with functional NADPH oxidase capacity (Olofsson & Holmdahl (2003) Scand J Immunol 58:155-164).
Oxidative burst response to PMA stimulation in vitro in spleen granulocytes taken 5 days after s.c. phytol injection in DA.Ncf1^DA rats (200 μl) compared to naive DA.Ncf1^DA and DA.Ncf1^E3 (n=5) (FIG. 3).

[3] = system: HL-60 cells; test: Oxidative burst assay of granulocytes in vitro (isoluminol, extra-cellular ROS); conditions: HL-60 differentiated to granulocytes, 50 minutes, 37° C.
Method: The human myeloma cell line HL-60 (ATCC, CCI-240) was cultured in D-MEM (Gibco, Paisley, UK) complemented with 10% fetal calf serum and Penicillin-Streptomycin. […] Before assaying the cells were washed and resuspended in PBS to a concentration of 10^7 cells/ml.
Briefly, 5 μl of resuspended oils were added into 96-well plates containing 5×10^5 cells/well in a total volume of 200 μl PBS/well (final concentration isoluminol 50 μg/ml; Sigma Aldrich) and horse radish peroxidase (type II 2,5 U/ml; Sigma Aldrich). Samples were gently mixed and the data collection was initiated immediately. Extra-cellular ROS production was followed at 37° C. as produced luminescence signal (FluoStar Optima, BMG Labtechnologies, Offenburg, Germany) and presented as maximal relative signal during a measurement period of 50 minutes.
The cells were differentiated to granulocytes by culture in presence of 1,25% dimethylsulfoxide (DMSO; Sigma Aldrich Inc., Milwaukee, Wis.) for six days.

[4] = system: DA.Ncf1^DA rats; test: Pristane induced arthritis (PIA) in DA.Ncf1^DA rats; assay type: in vivo, Rat (Rattus norvegicus)
Method: Treatments with compound 1 (phytol) or compound 5 (phytyl acetate) were administered to DA.Ncf1^DA rats as 100 μl subcutaneous injections in the neck at day 8 and 10 after arthritis induction (untreated control (◯), compound 1 (phytol) (♦) and compound 5 (phytyl acetate) (▴)) (FIG. 9).
Treatments with compound 2 (farnesol) or compound 4 (farnesylacetate) were administered to DA.Ncf1^DA rats as 100 μl subcutaneous injections in the neck at day 8 and 10 after arthritis induction, (untreated control (◯), compound 2 (farnesol) (▪) and compound 4 (farnesylacetate) (▴)) (FIG. 11).
Treatments with compound 1 (phytol), compound 6 (di-hydro-phytol, compound 5 (phytyl acetate), or compound 7 (di-hydro-phytyl acetate were administered to DA.Ncf1^DA rats as 100 μl subcutaneous injections in the neck at day 8 and 10 after arthritis induction, (untreated control (◯), compound 1 (phytol) (♦), compound 6 (di-hydro-phytol (▪), compound 5 (phytyl acetate) (▴) or compound 7 (di-hydro-phytyl acetate (●)) (FIG. 12).
Treatments of DA.Ncf1^DA rats with compound 1 (phytol) mixed in the food for continuous uptake compared with Omega3 fatty acids, (untreated control (◯), Omega3 fatty acid (□), phytol 1% daily (♦), phytol 1% every 2'nd day (▴), or phytol 1% initiated day 7 after arthritis induction (▪)) (FIG. 13).
Treatments of DA.Ncf1^DA rats with compound 5 (phytyl acetate) mixed in the food for daily uptake, (untreated control (◯), compound 1 (phytol) 1% daily (♦), or compound 5 (phytyl acetate) 1% daily (▴)) (FIG. 14).
Treatments with compound 1 (phytol) at 1.6 or 2.3 g/kg/day administered to DA.Ncf1^DA rats by oral gavage given by dosing every second day with compound 1 (phytol) […] (♦), compound 1 (phytol) […] (▴) or untreated control (◯).
Treatments of DA.Ncf1^DA rats with compound 1 (phytol) or compound 9 (isophytol) mixed in the food for continuous uptake compared with fenofibrate, (compound 1 (phytol) 500 mg/kg/day (♦), compound 9 (isophytol) 500 mg/kg/day (▴), or fenofibrate 100 mg/kg/day (□). Untreated control (◯).) (see FIG. 17).

[5] = system: Lewis.IF rat; test: Pristane induced arthritis (PIA) in Lewis.IF rats; conditions: 200 μl s.c. 5 days before induction of PIA
Method: Disease was induced in all rats at the age of 6-12 weeks. Arthritis development was monitored with a macroscopic scoring system of the four limbs ranging from 0 to 15 (1 point for each swollen or red toe, 1 point for midfoot digit or knuckle, 5 points for a swollen ankle). The scores of the four paws were added yielding a maximum total score of 60 for each rat.
Therapeutic treatments were administered s.c. or intra peritoneal (i.p.; 200 μl) after onset of disease in the acute or chronic phase (FIG. 6).

[6] = system: DA.Ncf1^DA rats; test: Non oil collagen induced arthritis (NOCIA); assay type: in vivo, Rat (Rattus norvegicus)
Method: Non oil collagen induced arthritis (NOCIA) was induced by emulsifying rat CII (300 μg) in a mixture of LPS (50 μg; Sigma Aldrich), CPG (5′-TCCATGACGTTCCTGACGTT-3′; SEQ ID NO:1) (45 μg; MWG-Biotech AG, Ebersberg, Germany) and alum (6 mg; Sigma Aldrich) and injected s.c. in a total volume of 300 μl.
Preventive effect on arthritis of phytol injection (200 μl s.c.) five days prior to induction of NOCIA in DA.Ncf1^DA rats, (control (Δ) and compound 1 (phytol) (▴)).
Delayed type hypersensitivity (DTH) response is abrogated after compound 1 (phytol) injection (FIG. 8B). Day 67 after NOCIA immunization the immune system was challenged by an injection of CII in the ear. Following increase in ear volume was measured and compared to control ear (control n=7 and compound 1 (phytol) n=8).

[7] = system: DA.Ncf1^DA rats; test: Experimental allergic encephalomyelitis (EAE) in vivo; set-up: species or system Rat (Rattus norvegicus); conditions: 200 μL injected at the base of the tail at day 0; scored 40 days; p<0.01 vs untreated control
Method: At day 0, all rats were treated (immunized) with 200 μL SCH (DA.Ncf1^DA spinal cord homogenate, to induce EAE) i.d. at the base of the tail. The rats were then scored according to the following scale for 40 days: • 0=Normal • 1=Tail weakness • 2=Tail paralysis • 3=Tail paralysis and mild […] • 4=Tail paralysis and severe […] • 5=Tail paralysis and paralysis of one limb • 6=Tail paralysis and paralysis of a pair of limbs • 7=Tetra-paresis • 8=Pre-morbid or dead. […] EAE began to appear around day 6.

[8] = system: DA.Ncf1^DA rats; test: Collagen induced arthritis (CIA) with oil adjuvant; assay type: in vivo, Rat (Rattus norvegicus)
Method: Collagen induced arthritis (CIA) was induced by an s.c. injection of 100 μl of rat collagen type II (CII; 100 μg/rat-150 μg/rat), emulsified in incomplete Freund's adjuvant (IFA; Sigma Aldrich) (FIG. 7).
Effect of s.c. administration of phytol (200 μl) 5 days.
At day 27 after immunization, sera were taken and analyzed for anti-CII IgG levels (n=7). Titers are relative to pooled positive sera (units).

## C/C(=C\CO)CCCC(C)CCCC(C)CCCC(C)C (stereo not shown) [compound 1, 3,7,11,15-Tetramethyl-2-hexadecen-1-ol]
[1]
  arthritis ameliorating effects: arthritis ameliorating effects
  arthritogenicity: non arthritogenic
[2]
  Oxidative burst / NADPH oxidase capacity in vivo: restores to NADPH oxidase capacity to a level comparable to the level of NADPH oxidase capacity in rats with a functional oxidative burst
[2]; listed as Phytol
  Oxidative burst / NADPH oxidase capacity in vivo: restores the oxidative burst defect in vivo
[3]
  Extra-cellular ROS production (maximal relative luminescence signal): strong ROS production
[4]; 100 μl subcutaneous injections in the neck at day 8 and 10 after arthritis induction
  severity of PIA, therapeutic effect: therapeutic effects
[4]; mixed in the food for continuous uptake, 500 mg/kg/day
  severity of PIA, oral administration in food 500 mg/kg/day: reduced the severity of arthritis
[4]; mixed in the food for daily uptake, 1% daily
  severity of PIA, oral administration in food 1% daily: reducing the severity of arthritis
[4]; oral gavage every second day, both doses
  adverse effect of the high doses (macroscopic observation, postmortem dissection): No adverse effect
[4]; phytol 1% daily, 1% every 2'nd day, or 1% initiated day 7 after arthritis induction
  severity of PIA, oral administration in food, three regimes: reduced the severity of arthritis
[5]
  severity of PIA, preventive, Lewis.IF rat: arthritis preventing effect
[6]; 200 μl s.c. five days prior to induction
  arthritis severity in NOCIA: reduces arthritis severity
[6]; CII challenge in the ear day 67 after NOCIA immunization
  Delayed type hypersensitivity (DTH) response (increase in ear volume): abrogated
[7]
  severity of inflammatory and paralyzing symptoms of EAE (score 0-8): significant difference in severity of inflammatory and paralyzing symptoms of EAE
[8]; day 27 after immunization
  anti-CII antibody (IgG) levels in serum: decreases anti-CII antibody levels in serum
[8]; s.c. administration (200 μl) 5 days before immunization with CII
  severity of collagen-induced arthritis: prevents collagen-induced arthritis
